Assay results reported in BigSolDB 2.1.

C[C@H]1COc2c(N3CCN(C)CC3)c(F)c(N)c3c(=O)c(C(=O)O)cn1c23.Cl
solubility (mole fraction)
Conditions | 273.15 K | 278.15 K | 283.15 K | 288.15 K | 293.15 K | 298.15 K | 303.15 K | 308.15 K | 313.15 K | 318.15 K
in acetonitrile | 2.41e-06 | 2.73e-06 | 3.11e-06 | 3.59e-06 | 4.1e-06 | 4.68e-06 | 5.36e-06 | 6.07e-06 | 6.9e-06 | 7.84e-06
in ethanol | 9.29e-06 | 1.06e-05 | 1.22e-05 | 1.39e-05 | 1.59e-05 | 1.78e-05 | 2.02e-05 | 2.29e-05 | 2.56e-05 | 2.87e-05
in water | 0.000436 | 0.000564 | 0.000725 | 0.000971 | 0.00126 | 0.00161 | 0.00204 | 0.00253 | 0.00311 | 0.00376
